± gives the expanded uncertainty stated by the source.
Legend:
[1] = 101.33 kPa, Liquid; for viscosity: Falling or rolling sphere viscometry; for mass density: Vibrating tube method
[2] = activity coefficient (dimensionless); of the first substance listed, at infinite dilution; xn = mol fraction of the nth substance listed; conditions: 101.33 kPa, Liquid, Chromatography, x1 = 0

SMILES: CC[N+]1(C)CCOCC1.N#CN=C=[N-] [N-ethyl-N-methylmorpholinium dicyanamide]
- viscosity ([1]; 298.15 K): 176 ± 8 mPa·s
- mass density ([1]; 298.15 K): 1123.2 ± 4.8 kg/m3
- mass density ([1]; 303.15 K): 1120.2 ± 4.8 kg/m3
- viscosity ([1]; 308.15 K): 106 ± 4 mPa·s
- mass density ([1]; 308.15 K): 1117.2 ± 4.8 kg/m3
- mass density ([1]; 313.15 K): 1114.2 ± 4.8 kg/m3
- viscosity ([1]; 318.15 K): 68.3 ± 1.8 mPa·s
- mass density ([1]; 318.15 K): 1111.3 ± 4.8 kg/m3
- mass density ([1]; 323.15 K): 1108.4 ± 4.8 kg/m3
- viscosity ([1]; 328.15 K): 47.4 ± 1.2 mPa·s
- mass density ([1]; 328.15 K): 1105.4 ± 4.7 kg/m3
- mass density ([1]; 333.15 K): 1102.5 ± 4.7 kg/m3
- viscosity ([1]; 338.15 K): 33.7 ± 0.8 mPa·s
- mass density ([1]; 338.15 K): 1099.7 ± 4.7 kg/m3
- mass density ([1]; 343.15 K): 1096.8 ± 4.7 kg/m3
- viscosity ([1]; 348.15 K): 24.8 ± 0.6 mPa·s
- mass density ([1]; 348.15 K): 1093.9 ± 4.7 kg/m3
- mass density ([1]; 353.15 K): 1091.1 ± 4.7 kg/m3
- viscosity ([1]; 358.15 K): 19.2 ± 0.5 mPa·s
- mass density ([1]; 358.15 K): 1088.3 ± 4.6 kg/m3
- mass density ([1]; 363.15 K): 1085.5 ± 4.6 kg/m3
- viscosity ([1]; 368.15 K): 15.6 ± 0.4 mPa·s
- mass density ([1]; 368.15 K): 1082.7 ± 4.6 kg/m3

SMILES: Cc1ccccc1 [toluene] + CC[N+]1(C)CCOCC1.N#CN=C=[N-]
- activity coefficient ([2]; 318.15 K): 7.87 ± 0.54
- activity coefficient ([2]; 328.15 K): 8.1 ± 0.55
- activity coefficient ([2]; 338.15 K): 8.33 ± 0.57
- activity coefficient ([2]; 348.15 K): 8.56 ± 0.58
- activity coefficient ([2]; 358.15 K): 8.77 ± 0.6
- activity coefficient ([2]; 368.15 K): 8.99 ± 0.61

SMILES: c1ccsc1 [thiophene] + CC[N+]1(C)CCOCC1.N#CN=C=[N-]
- activity coefficient ([2]; 318.15 K): 2.24 ± 0.15
- activity coefficient ([2]; 328.15 K): 2.36 ± 0.16
- activity coefficient ([2]; 338.15 K): 2.48 ± 0.17
- activity coefficient ([2]; 348.15 K): 2.59 ± 0.18
- activity coefficient ([2]; 358.15 K): 2.71 ± 0.18
- activity coefficient ([2]; 368.15 K): 2.82 ± 0.19

SMILES: CCOC(C)=O [ethyl acetate] + CC[N+]1(C)CCOCC1.N#CN=C=[N-]
- activity coefficient ([2]; 318.15 K): 5.67 ± 0.39
- activity coefficient ([2]; 328.15 K): 5.93 ± 0.4
- activity coefficient ([2]; 338.15 K): 6.19 ± 0.42
- activity coefficient ([2]; 348.15 K): 6.45 ± 0.44
- activity coefficient ([2]; 358.15 K): 6.71 ± 0.46
- activity coefficient ([2]; 368.15 K): 6.96 ± 0.47

SMILES: CCCc1ccccc1 [propylbenzene] + CC[N+]1(C)CCOCC1.N#CN=C=[N-]
- activity coefficient ([2]; 318.15 K): 29.2 ± 2
- activity coefficient ([2]; 328.15 K): 29.1 ± 2
- activity coefficient ([2]; 338.15 K): 29.1 ± 2
- activity coefficient ([2]; 348.15 K): 29.1 ± 2
- activity coefficient ([2]; 358.15 K): 29.2 ± 2
- activity coefficient ([2]; 368.15 K): 29.2 ± 2

SMILES: CC(C)CO [2-methyl-1-propanol] + CC[N+]1(C)CCOCC1.N#CN=C=[N-]
- activity coefficient ([2]; 318.15 K): 3.01 ± 0.2
- activity coefficient ([2]; 328.15 K): 2.93 ± 0.2
- activity coefficient ([2]; 338.15 K): 2.86 ± 0.19
- activity coefficient ([2]; 348.15 K): 2.79 ± 0.19
- activity coefficient ([2]; 358.15 K): 2.73 ± 0.19
- activity coefficient ([2]; 368.15 K): 2.67 ± 0.18

SMILES: C=CCCCCCC [oct-1-ene] + CC[N+]1(C)CCOCC1.N#CN=C=[N-]
- activity coefficient ([2]; 318.15 K): 496 ± 34
- activity coefficient ([2]; 328.15 K): 445 ± 31
- activity coefficient ([2]; 338.15 K): 402 ± 28
- activity coefficient ([2]; 348.15 K): 364 ± 25
- activity coefficient ([2]; 358.15 K): 333 ± 23
- activity coefficient ([2]; 368.15 K): 307 ± 21

SMILES: CC(C)OC(C)C [diisopropyl ether] + CC[N+]1(C)CCOCC1.N#CN=C=[N-]
- activity coefficient ([2]; 328.15 K): 123 ± 8
- activity coefficient ([2]; 338.15 K): 125 ± 9
- activity coefficient ([2]; 348.15 K): 127 ± 9
- activity coefficient ([2]; 358.15 K): 128 ± 9
- activity coefficient ([2]; 368.15 K): 130 ± 9

SMILES: CCCO [propan-1-ol] + CC[N+]1(C)CCOCC1.N#CN=C=[N-]
- activity coefficient ([2]; 318.15 K): 1.85 ± 0.12
- activity coefficient ([2]; 328.15 K): 1.85 ± 0.12
- activity coefficient ([2]; 338.15 K): 1.84 ± 0.12
- activity coefficient ([2]; 348.15 K): 1.84 ± 0.12
- activity coefficient ([2]; 358.15 K): 1.84 ± 0.12
- activity coefficient ([2]; 368.15 K): 1.83 ± 0.12

SMILES: C=CCCCCCCCC [1-decene] + CC[N+]1(C)CCOCC1.N#CN=C=[N-]
- activity coefficient ([2]; 318.15 K): 1200 ± 83
- activity coefficient ([2]; 328.15 K): 1070 ± 74
- activity coefficient ([2]; 338.15 K): 960 ± 66
- activity coefficient ([2]; 348.15 K): 865 ± 60
- activity coefficient ([2]; 358.15 K): 785 ± 54
- activity coefficient ([2]; 368.15 K): 718 ± 49

SMILES: C1CCCCC1 [cyclohexane] + CC[N+]1(C)CCOCC1.N#CN=C=[N-]
- activity coefficient ([2]; 318.15 K): 168 ± 12
- activity coefficient ([2]; 328.15 K): 152 ± 10
- activity coefficient ([2]; 338.15 K): 138 ± 9
- activity coefficient ([2]; 348.15 K): 126 ± 9
- activity coefficient ([2]; 358.15 K): 115 ± 8
- activity coefficient ([2]; 368.15 K): 106 ± 7

SMILES: C#CCCCCCC [1-octyne] + CC[N+]1(C)CCOCC1.N#CN=C=[N-]
- activity coefficient ([2]; 318.15 K): 84.2 ± 5.8
- activity coefficient ([2]; 328.15 K): 84.6 ± 5.8
- activity coefficient ([2]; 338.15 K): 84.9 ± 5.8
- activity coefficient ([2]; 348.15 K): 85.6 ± 5.9
- activity coefficient ([2]; 358.15 K): 86.1 ± 5.9
- activity coefficient ([2]; 368.15 K): 86.8 ± 5.9

SMILES: CC(C)c1ccccc1 [isopropylbenzene] + CC[N+]1(C)CCOCC1.N#CN=C=[N-]
- activity coefficient ([2]; 318.15 K): 27 ± 1.8
- activity coefficient ([2]; 328.15 K): 26.9 ± 1.8
- activity coefficient ([2]; 338.15 K): 26.9 ± 1.8
- activity coefficient ([2]; 348.15 K): 26.9 ± 1.8
- activity coefficient ([2]; 358.15 K): 26.9 ± 1.8
- activity coefficient ([2]; 368.15 K): 26.9 ± 1.8

SMILES: C1CCCCCC1 [cycloheptane] + CC[N+]1(C)CCOCC1.N#CN=C=[N-]
- activity coefficient ([2]; 318.15 K): 215 ± 15
- activity coefficient ([2]; 328.15 K): 202 ± 14
- activity coefficient ([2]; 338.15 K): 189 ± 13
- activity coefficient ([2]; 348.15 K): 179 ± 12
- activity coefficient ([2]; 358.15 K): 169 ± 12
- activity coefficient ([2]; 368.15 K): 161 ± 11

SMILES: C1CCOC1 [tetrahydrofuran] + CC[N+]1(C)CCOCC1.N#CN=C=[N-]
- activity coefficient ([2]; 318.15 K): 3.3 ± 0.22
- activity coefficient ([2]; 328.15 K): 3.44 ± 0.23
- activity coefficient ([2]; 338.15 K): 3.57 ± 0.24
- activity coefficient ([2]; 348.15 K): 3.7 ± 0.25
- activity coefficient ([2]; 358.15 K): 3.82 ± 0.26
- activity coefficient ([2]; 368.15 K): 3.95 ± 0.27

SMILES: O [water] + CC[N+]1(C)CCOCC1.N#CN=C=[N-]
- activity coefficient ([2]; 318.15 K): 0.324 ± 0.032
- activity coefficient ([2]; 328.15 K): 0.337 ± 0.032
- activity coefficient ([2]; 338.15 K): 0.35 ± 0.032
- activity coefficient ([2]; 348.15 K): 0.364 ± 0.033
- activity coefficient ([2]; 358.15 K): 0.376 ± 0.033
- activity coefficient ([2]; 368.15 K): 0.39 ± 0.034

SMILES: Cc1cccc(C)c1 [1,3-dimethylbenzene] + CC[N+]1(C)CCOCC1.N#CN=C=[N-]
- activity coefficient ([2]; 318.15 K): 13.8 ± 0.9
- activity coefficient ([2]; 328.15 K): 14.1 ± 1
- activity coefficient ([2]; 338.15 K): 14.4 ± 1
- activity coefficient ([2]; 348.15 K): 14.7 ± 1
- activity coefficient ([2]; 358.15 K): 14.9 ± 1
- activity coefficient ([2]; 368.15 K): 15.2 ± 1

SMILES: CCCC=O [butanal] + CC[N+]1(C)CCOCC1.N#CN=C=[N-]
- activity coefficient ([2]; 318.15 K): 3.51 ± 0.24
- activity coefficient ([2]; 328.15 K): 3.65 ± 0.25
- activity coefficient ([2]; 338.15 K): 3.79 ± 0.26
- activity coefficient ([2]; 348.15 K): 3.92 ± 0.27
- activity coefficient ([2]; 358.15 K): 4.04 ± 0.28
- activity coefficient ([2]; 368.15 K): 4.17 ± 0.28

Reference: the NIST ThermoML archive (doi:10.1016/j.jct.2018.02.014)
